Values after ≈ are worked out from the molar mass of the structure shown. Where a SMILES comes first, the peptide text is derived from it. [ ]: non-standard residue; d: D form. aIle = CC[C@@H](C)[C@H](N)C(=O)O; dPhLac = O=C(O)[C@H](O)Cc1ccccc1; Sar = CNCC(=O)O
Key:
[1] = Cytotoxicity against human BC1 cells; assay type: functional, cell-based
[2] = tested on: Mycobacterium tuberculosis; test: Antimycobacterial activity against Mycobacterium tuberculosis H37Ra by Microplate Alamar Blue Assay; assay type: functional
Plasmodium falciparum = test: Antimalarial activity as reduced parasitaemia against multidrug-resistant Plasmodium falciparum K1 by [3H]hypoxanthine uptake; assay type: functional, organism-based
Vero = test: Cytotoxicity against african green monkey Vero cells at 50 ug/mL by SRB assay; assay type: cell-based; details: Chlorocebus sabaeus

Cc1c2ccncc2c(C)c2c1[nH]c1ccccc12 [ELLIPTECINE]
IC50 [1]: 0.3 µg/mL (≈ 1.22 µM)

CC[C@@H](C)[C@@H]1NC(=O)[C@@H](Cc2ccccc2)OC(=O)CN(C)C(=O)[C@H]([C@H](C)CC)NC(=O)[C@@H](Cc2ccccc2)OC(=O)CN(C)C1=O [HIRSUTELLIDE A] (cyclo([Sar][dPhLac][aIle][Sar][dPhLac][aIle]))
MIC [2]: 6 µg/mL (≈ 9.03 µM) | Activity (Plasmodium falciparum): Not toxic | IC50 (Vero): 2.8 µg/mL (≈ 4.21 µM)

NC[C@H]1O[C@H](O[C@H]2[C@H](O)[C@@H](O[C@H]3O[C@H](CO)[C@@H](O)[C@H](N)[C@H]3O)[C@H](N)C[C@@H]2N)[C@H](O)[C@@H](O)[C@@H]1O.O=S(=O)(O)O [KANAMYCIN SULFATE]
MIC [2]: 2 µg/mL

NNC(=O)c1ccncc1 [ISONIAZID]
MIC [2]: 0.04 µg/mL (≈ 0.292 µM)

C[C@@H]1CC[C@H]2[C@@H](C)C(=O)O[C@@H]3O[C@@]4(C)CC[C@@H]1[C@]32OO4 [ARTEMISININ]
IC50 (Plasmodium falciparum): 0.001 µg/mL (≈ 0.00354 µM)
